Results as given in patent US8389011B2, “Pharmaceutical compositions of cholesteryl ester transfer protein inhibitors” (Bend Research, Inc., priority 2000, dated 2013).

Assay: In vitro dissolution test, microcentrifuge method, in phosphate buffered saline (PBS) pH 6.5
Assay type: physicochemical
Settings: for AUC / Drug 2 Concentration: Table 5, PBS pH 6.5, 37° C.; for AUC: dose about 1000 μg/mL; for Drug 2 Concentration: Drug 2 dose about 1000 μg/mL
Method: The compositions comprising the CETP inhibitor and concentration-enhancing polymer provide enhanced concentration of the dissolved CETP inhibitor in in vitro dissolution tests. […] An appropriate PBS solution is an aqueous solution comprising 20 mM sodium phosphate (Na2HPO4), 47 mM potassium phosphate (KH2PO4), 87 mM NaCl, and 0.2 mM KCl, adjusted to pH 6.5 with NaOH. An appropriate MFD solution is the same PBS solution wherein additionally is present 7.3 mM sodium taurocholic acid and 1.4 mM of 1-palmitoyl-2-oleyl-sn-glycero-3-phosphocholine. In particular, a composition of the present invention can be dissolution-tested by adding it to MFD or PBS solution and agitating to promote dissolution.
Indeed, for some extremely insoluble CETP inhibitors, in order to identify the MDC achieved it may be necessary to use an amount of test composition such that if all of the CETP inhibitor dissolved, the CETP inhibitor concentration would be 10,000-fold or even more, that of the equilibrium concentration of the CETP inhibitor.
The MDC is taken to be the maximum value of dissolved CETP inhibitor measured over the duration of the test.
Filtration can be conducted using a 13 mm, 0.45 μm polyvinylidine difluoride syringe filter sold by Scientific Resources under the trademark TITAN®. Centrifugation is typically carried out in a polypropylene microcentrifuge tube by centrifuging at 13,000 G for 60 seconds. Other similar filtration or centrifugation methods can be employed and useful results obtained.
The spray-dried dispersions of Examples 6 and 7 were evaluated in an in vitro dissolution test using a microcentrifuge method. In this test, the spray-dried dispersion was added to a microcentrifuge tube for a Drug 2 dose of about 1000 μg/mL (7.2 mg for Example 6, 18 mg for Example 7). The tube was placed in a 37° C. sonicating bath, and 1.8 mL phosphate buffered saline (PBS) at pH 6.5 and 290 mOsm/kg was added. The samples were quickly mixed using a vortex mixer for about 60 seconds. The samples were centrifuged at 13,000 G at 37° C. for 1 minute. The resulting supernatant solution was then sampled and diluted 1:6 (by volume) with methanol and then analyzed by high-performance liquid chromatography (HPLC). The contents of the tubes were mixed on the vortex mixer and allowed to stand undisturbed at 37° C. until the next sample was taken. Samples were collected at 4, 10, 20, 40, 90, and 1200 minutes.
For Control 2, an in vitro dissolution test was performed using the procedures described above except that 1.8 mg of crystalline Drug 2 was used.
In this method, 7.2 mg of each spray-dried dispersion was added to a 2-mL microcentrifuge tube. The tube was placed in a 37° C. sonicating bath, and 1.8 mL of a phosphate-buffered saline (PBS) solution at pH 6.5 and 290 mOsm/kg was added, resulting in a TCmax of 400 μg/mL. The samples were quickly mixed using a combination of vortex mixer and sonication for about 90 seconds. The samples were centrifuged at 13,000 G at 37° C. for 1 minute. The resulting supernatant solution was then sampled and diluted 1:6 (by volume) with methanol and then analyzed by HPLC. The tubes were then mixed on the vortex mixer and allowed to stand undisturbed at 37° C. until the next sample. Samples were collected at 4, 10, 20, 40, 90 and 1200 minutes.
For Control 5, an in vitro dissolution test was performed using the procedure described above, except that 0.72 mg of non-crystalline Drug 3 was placed in a microcentrifuge tube and mixed with 1.8 mL of PBS.
In this method, 15 mg of each SDD was added to a 2-mL microcentrifuge tube. The tube was placed in a 37° C. sonicating bath, and 1.5 mL of a phosphate-buffered saline (PBS) solution at pH 6.5 and 290 mOsm/kg) was added, resulting in a TCmax of 1000 μg/mL. The samples were quickly mixed using a combination of vortex mixer and sonication for about 90 seconds.

[1] = Table 25: Drug 2, PBS, melt-congeal poloxamer dispersions
[2] = Table 28: Drug 2, PBS, spray-dried poloxamer dispersions
[3] = Table 37: Drug 2, PBS, CMEC dispersions

Q: Which “actual Cmax,90 for Drug 2 in Control 2 (believed)” value (PBS, inferred from the accurately measured solubility of crystalline Drug 2) does the source give for `CCOC(=O)N1c2ccc(C(F)(F)F)cc2[C@@H](N(Cc2cc(C(F)(F)F)cc(C(F)(F)F)c2)C(=O)OC)C[C@H]1CC` [Control 2, [2R,4S]4-[(3,5-bis-trifluoromethyl-benzyl)-methoxycarbonyl-amino]-2-ethyl-6-trifluoromethyl-3,4-dihydro-2H-quinoline-1-carboxylic acid ethyl ester] here?
A: The value was “about 0.01 μg/ml”.

Q: What about the AUC (Drug 2, to 0 min) of the same compound?
A: The AUC was 0 min-μg/mL.

Q: What about the AUC (Drug 2, to 4 min) of the same compound?
A: The AUC was under 2 min-μg/mL.

Q: What about the AUC (Drug 2, to 10 min) of the same compound?
A: Its AUC is under 8 min-μg/mL.

Q: What about the AUC (Drug 2, to 20 min) of the same compound?
A: Its AUC is under 18 min-μg/mL.

Q: What about the AUC (Drug 2, to 40 min) of the same compound?
A: The AUC was under 38 min-μg/mL.

Q: What about the AUC (Drug 2, to 90 min) of the same compound?
A: Its AUC is under 88 min-μg/mL.

Q: And the AUC (Drug 2, to 1200 min)?
A: The AUC was <1,200 min-μg/mL.

Q: And the “Drug 2 Concentration” value (0 min)?
A: Its value is 0 µg/mL.

Q: What about the “Drug 2 Concentration” value (4 min) of the same compound?
A: Its value is under 1 µg/mL.

Q: And the “Drug 2 Concentration” value (10 min)?
A: Its value is under 1 µg/mL.

Q: And the “Drug 2 Concentration” value (20 min)?
A: The value was under 1 µg/mL.

Q: And the “Drug 2 Concentration” value (40 min)?
A: The value was under 1 µg/mL.

Q: And the “Drug 2 Concentration” value (90 min)?
A: The value was under 1 µg/mL.

Q: And the “Drug 2 Concentration” value (1200 min)?
A: Its value is under 1 µg/mL.

Q: What about the AUC90 (Table 6, area under the aqueous concentration versus time curve after 90 minutes, Drug 2, PBS, TCmax about 1000 μg/mL) of the same compound?
A: Its AUC90 is under 88 min-μg/mL.

Q: And the C1200 (Table 6, concentration of Drug 2 at 1200 minutes, PBS, TCmax about 1000 μg/mL)?
A: Its C1200 is under 1 µg/mL.

Q: And the “Cmax, 90” value (Table 6, maximum concentration of Drug 2 in solution during the first 90 minutes, PBS, TCmax about 1000 μg/mL)?
A: Its value is under 1000 ng/mL.

Q: What about the AUC90 [1] of the same compound?
A: Its AUC90 is under 1470 ng·h/mL.

Q: What about the “Cmax, 90” value [1] of the same compound?
A: The value was under 1000 ng/mL.

Q: What about the AUC90 [2] of the same compound?
A: Its AUC90 is under 88 min-μg/mL.

Q: And the “Cmax, 90” value [2]?
A: The value was under 1000 ng/mL.

Q: And the AUC90 [3]?
A: The AUC90 was under 88 min-μg/mL.

Q: What about the “Cmax, 90” value [3] of the same compound?
A: The value was under 1000 ng/mL.

Q: What about the AUC90 (Table 41: Drug 2, PBS) of the same compound?
A: The AUC90 was under 88 min-μg/mL.

Q: What about the “Cmax, 90” value (Table 41: Drug 2, PBS) of the same compound?
A: The value was under 1000 ng/mL.

Q: What about the AUC90 (Table 44: Drug 2, PBS) of the same compound?
A: Its AUC90 is under 88 min-μg/mL.

Q: What about the “Cmax, 90” value (Table 44: Drug 2, PBS) of the same compound?
A: Its value is under 1000 ng/mL.
